In ChEMBL document CHEMBL5113513, “Selective Inhibitors of Medium-Size S1' Pocket Matrix Metalloproteinases: A Stepping Stone of Future Drug Discovery” (J Med Chem, 2022):
Values belong to the compound of their own block, whether it stands above or below them.

How the values were obtained:
Interstitial collagenase [1] = biological target: T1, Interstitial collagenase (Homo sapiens, UniProt P03956); assay: Inhibition of MMP-1 (unknown origin)
T1 sequence (P03956 whole entry): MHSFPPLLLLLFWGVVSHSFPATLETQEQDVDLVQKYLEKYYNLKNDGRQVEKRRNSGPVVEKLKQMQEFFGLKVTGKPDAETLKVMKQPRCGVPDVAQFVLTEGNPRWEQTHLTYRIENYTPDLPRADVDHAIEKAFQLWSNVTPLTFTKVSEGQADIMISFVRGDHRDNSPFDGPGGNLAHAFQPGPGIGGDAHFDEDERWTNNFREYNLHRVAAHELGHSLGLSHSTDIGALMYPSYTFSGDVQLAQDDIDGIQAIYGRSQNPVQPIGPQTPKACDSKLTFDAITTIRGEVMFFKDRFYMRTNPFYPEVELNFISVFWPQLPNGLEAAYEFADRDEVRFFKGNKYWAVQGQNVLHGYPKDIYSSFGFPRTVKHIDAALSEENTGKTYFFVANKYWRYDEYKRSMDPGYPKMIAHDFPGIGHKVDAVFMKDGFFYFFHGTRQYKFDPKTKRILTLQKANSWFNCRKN

[2] = biological target: T2, 72 kDa type IV collagenase (Homo sapiens, UniProt P08253)
T2 sequence (P08253 whole entry): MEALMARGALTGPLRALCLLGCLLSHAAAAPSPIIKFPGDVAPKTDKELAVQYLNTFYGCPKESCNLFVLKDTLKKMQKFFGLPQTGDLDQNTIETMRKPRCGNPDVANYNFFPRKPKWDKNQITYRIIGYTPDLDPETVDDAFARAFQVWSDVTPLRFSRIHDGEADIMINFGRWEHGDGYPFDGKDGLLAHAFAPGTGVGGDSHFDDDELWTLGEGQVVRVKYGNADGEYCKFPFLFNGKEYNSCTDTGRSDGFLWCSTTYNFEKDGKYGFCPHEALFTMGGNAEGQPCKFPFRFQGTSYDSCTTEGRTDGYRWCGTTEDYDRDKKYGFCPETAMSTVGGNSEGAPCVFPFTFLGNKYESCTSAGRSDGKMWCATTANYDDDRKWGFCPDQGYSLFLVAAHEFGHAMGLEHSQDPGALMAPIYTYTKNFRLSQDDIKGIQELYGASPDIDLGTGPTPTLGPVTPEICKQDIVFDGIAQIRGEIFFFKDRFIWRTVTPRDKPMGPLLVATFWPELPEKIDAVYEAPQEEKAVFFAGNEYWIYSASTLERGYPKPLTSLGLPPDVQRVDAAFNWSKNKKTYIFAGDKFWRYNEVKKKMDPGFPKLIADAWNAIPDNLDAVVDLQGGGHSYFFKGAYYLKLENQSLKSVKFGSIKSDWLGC

Stromelysin-1 [3] = biological target: T3, Stromelysin-1 (Homo sapiens, UniProt P08254); assay: Inhibition of MMP-3 (unknown origin)
T3 sequence (P08254 whole entry): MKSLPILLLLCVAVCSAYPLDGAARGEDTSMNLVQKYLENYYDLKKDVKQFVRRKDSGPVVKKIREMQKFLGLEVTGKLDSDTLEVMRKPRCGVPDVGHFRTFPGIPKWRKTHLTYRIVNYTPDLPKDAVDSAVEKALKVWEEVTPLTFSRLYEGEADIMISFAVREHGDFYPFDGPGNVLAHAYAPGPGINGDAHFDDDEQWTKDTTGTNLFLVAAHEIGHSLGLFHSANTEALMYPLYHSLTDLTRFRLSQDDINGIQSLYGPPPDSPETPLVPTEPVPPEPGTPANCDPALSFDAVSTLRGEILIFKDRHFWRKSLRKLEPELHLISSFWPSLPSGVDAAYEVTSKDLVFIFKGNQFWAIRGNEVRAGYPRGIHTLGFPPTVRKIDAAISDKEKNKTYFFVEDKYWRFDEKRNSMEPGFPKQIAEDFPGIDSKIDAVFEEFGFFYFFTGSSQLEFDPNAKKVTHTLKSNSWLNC

Matrilysin [4] = biological target: T4, Matrilysin (Homo sapiens, UniProt P09237); assay: Inhibition of MMP-7 (unknown origin)
T4 sequence (P09237 whole entry): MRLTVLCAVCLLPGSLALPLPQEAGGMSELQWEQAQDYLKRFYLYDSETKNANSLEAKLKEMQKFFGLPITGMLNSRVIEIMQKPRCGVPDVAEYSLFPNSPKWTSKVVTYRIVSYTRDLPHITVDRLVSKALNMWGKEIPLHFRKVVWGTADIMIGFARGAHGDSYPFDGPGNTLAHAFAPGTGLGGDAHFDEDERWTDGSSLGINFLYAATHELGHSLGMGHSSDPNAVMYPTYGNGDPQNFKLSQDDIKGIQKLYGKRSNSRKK

[5] = biological target: T5, Matrix metalloproteinase-9 (Homo sapiens, UniProt P14780); assay: Inhibition of MMP-9 (unknown origin)
T5 sequence (P14780 whole entry): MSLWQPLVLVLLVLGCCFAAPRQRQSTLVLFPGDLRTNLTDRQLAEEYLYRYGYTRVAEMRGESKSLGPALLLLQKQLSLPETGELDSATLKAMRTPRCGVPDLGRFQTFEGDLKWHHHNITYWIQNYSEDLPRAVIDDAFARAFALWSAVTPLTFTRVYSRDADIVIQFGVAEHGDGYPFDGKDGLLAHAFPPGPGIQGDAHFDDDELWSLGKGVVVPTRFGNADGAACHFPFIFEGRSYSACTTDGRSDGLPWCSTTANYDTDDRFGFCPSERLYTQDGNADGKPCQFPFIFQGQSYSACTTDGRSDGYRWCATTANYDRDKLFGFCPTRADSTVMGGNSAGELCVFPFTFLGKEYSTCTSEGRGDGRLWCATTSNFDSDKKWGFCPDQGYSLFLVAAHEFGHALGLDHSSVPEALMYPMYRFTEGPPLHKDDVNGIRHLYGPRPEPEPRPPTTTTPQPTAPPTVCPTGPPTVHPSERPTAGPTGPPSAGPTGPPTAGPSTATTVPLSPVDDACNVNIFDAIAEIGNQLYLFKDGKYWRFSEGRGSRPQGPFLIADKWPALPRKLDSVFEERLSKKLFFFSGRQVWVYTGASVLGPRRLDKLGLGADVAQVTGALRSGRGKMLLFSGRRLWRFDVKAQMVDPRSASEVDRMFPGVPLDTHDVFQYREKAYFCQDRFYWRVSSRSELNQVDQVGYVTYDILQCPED

Collagenase 3 [6] = biological target: T6, Collagenase 3 (Homo sapiens, UniProt P45452)
Description: Inhibition of MMP-13 (unknown origin)

[7] = biological target: T7, Matrix metalloproteinase-14 (Homo sapiens, UniProt P50281); assay: Inhibition of MMP-14 (unknown origin)
[8] = biological target: T2, 72 kDa type IV collagenase; assay: Inhibition of recombinant human MMP-2 using peptide substrate by ELISA
[9] = biological target: T5, Matrix metalloproteinase-9; assay: Inhibition of recombinant human MMP-9 using peptide substrate by ELISA
[10] = biological target: Macrophage metalloelastase (Homo sapiens, UniProt P39900); assay: Inhibition of recombinant human MMP-12 using peptide substrate by ELISA
Chain of Macrophage metalloelastase (P39900 whole entry): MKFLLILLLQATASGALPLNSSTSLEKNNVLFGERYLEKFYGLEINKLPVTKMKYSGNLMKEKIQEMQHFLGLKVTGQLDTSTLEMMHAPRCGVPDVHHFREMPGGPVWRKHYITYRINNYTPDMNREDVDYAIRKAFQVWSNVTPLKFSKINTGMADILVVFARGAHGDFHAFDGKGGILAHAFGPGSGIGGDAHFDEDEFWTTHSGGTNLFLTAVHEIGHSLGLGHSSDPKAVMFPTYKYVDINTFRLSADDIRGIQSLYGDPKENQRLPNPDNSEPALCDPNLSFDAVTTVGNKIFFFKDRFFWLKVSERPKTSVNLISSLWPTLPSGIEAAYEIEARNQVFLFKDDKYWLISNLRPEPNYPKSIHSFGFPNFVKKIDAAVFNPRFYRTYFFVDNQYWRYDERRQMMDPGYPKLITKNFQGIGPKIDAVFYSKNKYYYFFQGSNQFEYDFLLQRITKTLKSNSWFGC

Collagenase 3 [11] = biological target: T6, Collagenase 3; assay: Inhibition of recombinant human MMP-13 using peptide substrate by ELISA
[12] = Inhibition of recombinant human TACE using peptide substrate by ELISA
[13] = Half life in Sprague-Dawley rats at 33 mg/kg, sc; assay type: ADME, organism-based; details: rat, in vivo
[14] = AUC in Sprague-Dawley rats at 33 mg/kg, sc; assay type: ADME, organism-based; parameters: dose 33 mg/kg, route sc; details: rat, in vivo
[15] = Half life in Sprague-Dawley rat at 33 mg/kg, po; assay type: ADME, organism-based; details: in vivo
[16] = AUC in Sprague-Dawley rats at 33 mg/kg, po; assay type: ADME, organism-based; parameters: dose 33 mg/kg, route po; details: rat, in vivo
Interstitial collagenase [17] = biological target: T1, Interstitial collagenase; assay: Inhibition of human MMP-1 expressed in Escherichia coli BL21(DE3) using Mca-Pro-Leu-Gly-Leu-Dpa-Ala-Arg-NH2 as substrate preincubated for 30 mins followed by susbstrate addition by photon-counter spectrophotometer analysis
[18] = biological target: T2, 72 kDa type IV collagenase; assay: Inhibition of human MMP-2 expressed in Escherichia coli BL21(DE3) using Mca-Pro-Leu-Gly-Leu-Dpa-Ala-Arg-NH2 as substrate preincubated for 30 mins followed by susbstrate addition by photon-counter spectrophotometer analysis
Stromelysin-1 [19] = biological target: T3, Stromelysin-1; assay: Inhibition of human MMP-3 expressed in Escherichia coli BL21(DE3) using Mca-Pro-Leu-Gly-Leu-Dpa-Ala-Arg-NH2 as substrate preincubated for 30 mins followed by susbstrate addition by photon-counter spectrophotometer analysis
Matrilysin [20] = biological target: T4, Matrilysin; assay: Inhibition of human MMP-7 expressed in Escherichia coli BL21(DE3) using Mca-Pro-Leu-Gly-Leu-Dpa-Ala-Arg-NH2 as substrate preincubated for 30 mins followed by susbstrate addition by photon-counter spectrophotometer analysis
Neutrophil collagenase [21] = biological target: T8, Neutrophil collagenase (Homo sapiens, UniProt P22894); assay: Inhibition of human MMP-8 expressed in Escherichia coli BL21(DE3) using Mca-Pro-Leu-Gly-Leu-Dpa-Ala-Arg-NH2 as substrate preincubated for 30 mins followed by susbstrate addition by photon-counter spectrophotometer analysis
T8 sequence (P22894 whole entry): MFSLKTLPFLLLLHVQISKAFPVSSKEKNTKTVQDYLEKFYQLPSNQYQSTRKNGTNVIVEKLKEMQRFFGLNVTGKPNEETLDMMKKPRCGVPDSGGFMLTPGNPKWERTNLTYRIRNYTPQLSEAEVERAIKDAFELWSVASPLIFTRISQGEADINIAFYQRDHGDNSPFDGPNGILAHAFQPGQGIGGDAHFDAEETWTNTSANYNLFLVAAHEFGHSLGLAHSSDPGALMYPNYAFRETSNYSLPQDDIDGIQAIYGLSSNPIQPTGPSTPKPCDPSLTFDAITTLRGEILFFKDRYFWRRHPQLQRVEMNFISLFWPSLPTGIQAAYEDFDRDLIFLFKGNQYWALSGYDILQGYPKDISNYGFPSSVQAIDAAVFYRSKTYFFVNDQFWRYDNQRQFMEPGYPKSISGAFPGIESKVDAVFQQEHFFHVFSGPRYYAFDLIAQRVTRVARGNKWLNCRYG

[22] = biological target: T5, Matrix metalloproteinase-9; assay: Inhibition of human MMP-9 expressed in Escherichia coli BL21(DE3) using Mca-Pro-Leu-Gly-Leu-Dpa-Ala-Arg-NH2 as substrate preincubated for 30 mins followed by susbstrate addition by photon-counter spectrophotometer analysis
Stromelysin-2 = Stromelysin-2 (Homo sapiens, UniProt P09238); assay: Inhibition of human MMP-10 expressed in Escherichia coli BL21(DE3) using Mca-Pro-Leu-Gly-Leu-Dpa-Ala-Arg-NH2 as substrate preincubated for 30 mins followed by susbstrate addition by photon-counter spectrophotometer analysis
Chain of Stromelysin-2 (P09238 whole entry): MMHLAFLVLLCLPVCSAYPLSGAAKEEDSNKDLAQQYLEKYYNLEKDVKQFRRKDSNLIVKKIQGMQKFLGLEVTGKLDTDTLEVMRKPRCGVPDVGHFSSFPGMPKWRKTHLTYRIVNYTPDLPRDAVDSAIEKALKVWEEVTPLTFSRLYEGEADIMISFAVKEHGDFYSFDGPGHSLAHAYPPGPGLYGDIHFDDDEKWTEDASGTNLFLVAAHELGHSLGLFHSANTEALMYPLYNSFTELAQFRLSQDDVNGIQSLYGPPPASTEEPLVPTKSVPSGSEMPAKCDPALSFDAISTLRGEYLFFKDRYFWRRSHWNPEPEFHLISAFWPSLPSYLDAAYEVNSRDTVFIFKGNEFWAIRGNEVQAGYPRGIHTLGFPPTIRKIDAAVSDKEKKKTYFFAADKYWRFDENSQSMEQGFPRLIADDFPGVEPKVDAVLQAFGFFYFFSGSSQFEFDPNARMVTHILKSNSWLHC

Collagenase 3 [23] = biological target: T6, Collagenase 3; assay: Inhibition of human MMP-13 expressed in Escherichia coli BL21(DE3) using Mca-Pro-Leu-Gly-Leu-Dpa-Ala-Arg-NH2 as substrate preincubated for 30 mins followed by susbstrate addition by photon-counter spectrophotometer analysis
[24] = biological target: T7, Matrix metalloproteinase-14; assay: Inhibition of human MMP-14 expressed in Escherichia coli BL21(DE3) using Mca-Pro-Leu-Gly-Leu-Dpa-Ala-Arg-NH2 as substrate preincubated for 30 mins followed by susbstrate addition by photon-counter spectrophotometer analysis
HT-1080 = assay: Inhibition of cell invasion in human HT-1080 cells for 24 hrs by Calcein AM staining based fluorometric analysis; assay type: functional; details: HT-1080, 24 h
[25] = biological target: T2, 72 kDa type IV collagenase; assay: Inhibition of MMP-2 (unknown origin) using Mca-Pro-Leu-Gly-Leu-Dpa-Ala-Arg-NH2 as substrate by fluorimetric assay
[26] = biological target: T5, Matrix metalloproteinase-9; assay: Inhibition of MMP-9 (unknown origin) using Mca-Pro-Leu-Gly-Leu-Dpa-Ala-Arg-NH2 as substrate by fluorimetric assay
Neutrophil collagenase [27] = biological target: T8, Neutrophil collagenase; assay: Inhibition of MMP-8 (unknown origin)

SMILES: COc1ccc(-c2ccc(CN3C(C(=O)NO)CCS3(=O)=O)cc2)cc1 (stereo unspecified)
- Ki (Interstitial collagenase [1]): 4950 nM

SMILES: O=C(NO)C1(S(=O)(=O)c2ccc(Oc3ccc(Cl)cc3)cc2)CCOCC1
- Ki [2]: 0.22 nM
- Ki (Stromelysin-1 [3]): 9.3 nM
- Ki (Matrilysin [4]): 1200 nM

SMILES: O=C(NCCCCCNS(=O)(=O)c1ccc(Oc2ccccc2)cc1)P(=O)(O)O
- IC50 [8]: 4 nM
- IC50 [9]: > 100 nM
- IC50 [10]: > 80 nM
- IC50 (Collagenase 3 [11]): > 60 nM
- IC50 [12]: > 100 nM
- half-life [13]: 9.3 h
- AUC [14]: 78000 ng·h/mL
- half-life [15]: 10.5 h
- AUC [16]: 6800 ng·h/mL

SMILES: CNC(=O)[C@@H](NC(=O)[C@H](CC(C)C)[C@H](O)C(=O)NO)C(C)(C)C
- IC50 [7]: 1.8 nM

SMILES: NC(=O)[C@H](CCC(=O)O)NC(=O)[C@@H](CCC(=O)O)NC(=O)CCc1cc(-c2ccc(-c3cccc(Cl)c3)cc2)no1
- Ki (Interstitial collagenase [17]): 17900 nM
- Ki [18]: 76 nM
- Ki (Stromelysin-1 [19]): 62 nM
- Ki (Matrilysin [20]): 1200 nM
- Ki (Neutrophil collagenase [21]): 181 nM
- Ki [22]: 565 nM
- Ki (Stromelysin-2): 48 nM
- Ki (Collagenase 3 [23]): 40 nM
- Ki [24]: 2060 nM

SMILES: COc1ccccc1Nc1nc(-c2sc(NC(C)=O)nc2C)cs1
- IC50 (HT-1080): 1000 nM

SMILES: CC(=O)Nc1ccc(Oc2ccc(S(=O)(=O)CC3CS3)cc2)cc1 (stereo unspecified)
- Ki (Interstitial collagenase [1]): > 154000 nM
- Ki (Stromelysin-1 [3]): > 188000 nM
- Ki [7]: > 230000 nM

SMILES: CNC(=O)[C@@H](NC(=O)[C@H](CC(C)C)NC(=O)[C@H](S)CCN1C(=O)N(C)C(C)(C)C1=O)C(C)(C)C
- IC50 (Interstitial collagenase [1]): 25 nM
- IC50 [2]: 41 nM
- IC50 (Stromelysin-1 [3]): 157 nM
- IC50 [5]: 25 nM
- IC50 (Collagenase 3 [6]): 4 nM

SMILES: CN1C(=O)N(C[C@H](C(=O)NO)[C@H](CC2CCCC2)C(=O)N2CCCCC2)C(=O)C1(C)C
- Ki (Neutrophil collagenase [27]): 4 nM

Further lines, results first:

- IC50 (Interstitial collagenase [1]): 380000 nM
- IC50 [2]: 12500 nM
- IC50 (Stromelysin-1 [3]): 364000 nM
- IC50 (Matrilysin [4]): 14200 nM
- IC50 [5]: 212000 nM
- IC50 (Collagenase 3 [6]): 101000 nM
- IC50 [7]: 165 nM
SMILES: O=C(O)CS(=O)(=O)c1ccc(-c2ccccc2)cc1

- IC50 [25]: 50 nM
- IC50 [26]: 1800 nM
SMILES: O=C(NCCCCC(NS(=O)(=O)c1ccc(-c2ccccc2)cc1)C(=O)O)OCc1ccccc1 (stereo unspecified)

- IC50 (Interstitial collagenase [1]): 1800 nM
- IC50 [2]: 6 nM
- IC50 (Stromelysin-1 [3]): 200 nM
- IC50 (Matrilysin [4]): 24 nM
- IC50 [5]: 140 nM
- IC50 (Collagenase 3 [6]): 9.8 nM
- IC50 [7]: 376 nM
SMILES: O=C(CS(=O)(=O)c1ccc(-c2ccccc2)cc1)NO

- IC50 [5]: 0.704 nM
SMILES: O=C(CCC(NS(=O)(=O)c1ccc(-c2ccccc2)cc1)C(=O)O)NCc1ccccc1 (stereo unspecified)

- IC50 (Interstitial collagenase [1]): > 3000 nM
- IC50 [2]: 0.41 nM
- IC50 (Stromelysin-1 [3]): 130 nM
- IC50 (Matrilysin [4]): 10000 nM
- IC50 [5]: 16 nM
- IC50 [7]: 7.7 nM
SMILES: CC(C)ON([C@@H](CCNC(=O)OCc1ccccc1)C(=O)NO)S(=O)(=O)c1ccc(-c2ccccc2)cc1
